Reference: patent US11597919B2, “Systems, methods and compositions for sequence manipulation with optimized functional CRISPR-Cas systems” (The Broad Institute, Inc., priority 2013, dated 2023)

B1: St3-SpCas9: St3Cas9 with the PI domain of SpCas9, SEQ ID NO: 122 (protein)
chain: MAPKKKRKVGIHGVPAAMTKPYSIGLDIGTNSVGWAVTTDNYKVPSKKMKVLGNTSKKYIKKNLLGVLLFDSGITAEGRRLKRTARRRYTRRRNRILYLQEIFSTEMATLDDAFFQRLDDSFLVPDDKRDSKYPIFGNLVEEKAYHDEFPTIYHLRKYLADSTKKADLRLVYLALAHMIKYRGHFLIEGEFNSKNNDIQKNFQDFLDTYNAIFESDLSLENSKQLEEIVKDKISKLEKKDRILKLFPGEKNSGIFSEFLKLIVGNQADFRKCFNLDEKASLHFSKESYDEDLETLLGYIGDDYSDVFLKAKKLYDAILLSGFLTVTDNETEAPLSSAMIKRYNEHKEDLALLKEYIRNISLKTYNEVFKDDTKNGYAGYIDGKTNQEEEDFYVYLKKLLAEFEGADYFLEKIDREDFLRKQRTFDNGSIPYQIHLQEMRAILDKQAKFYPFLAKNKERIEKILTFRIPYYVGPLARGNSDFAWSIRKRNEKITPWNFEDVIDKESSAEAFINRMTSFDLYLPEEKVLPKHSLLYETFNVYNELTKVRFIAESMRDYQFLDSKQKKDIVRLYFKDKRKVTDKDIIEYLHAIYGYDGIELKGIEKQFNSSLSTYHDLLNIINDKEFLDDSSNEAIIEEIIHTLTIFEDREMIKQRLSKFENIFDKSVLKKLSRRHYTGWGKLSAKLINGIRDEKSGNTILDYLIDDGISNRNFMQLIHDDALSFKKKIQKAQIIGDEDKGNIKEVVKSLPGSPAIKKGILQSIKIVDELVKVMGGRKPESIVVVVEMARENQYTNQGKSNSQQRLKRLEKSLKELGSKILKENIPAKLSKIDNNALQNDRLYLYYLQNGKDMYTGDDLDIDRLSNYDIDHIIPQAFLKDNSIDNKVLVSSASNRGKSDDVPSLEVVKKRKTFWYQLLKSKLISQRKFDNLTKAERGGLSPEDKAGFIQRQLVETRQITKHVARLLDEKFNNKKDENNRAVRTVKIITLKSTLVSQFRKDFELYKVREINDFHHAHDAYLNAVVASALLKKYPKLEPEFVYGDYPKYNSFRERKSATEKVYFYSNIMNIFKKSISLADGRVIERPLIEVNEETGESVWNKESDLATVRRVLSYPQVNVVKKTEVQTGGFSKESILPKRNSDKLIARKKDWDPKKYGGFDSPTVAYSVLVVAKVEKGKSKKLKSVKELLGITIMERSSFEKNPIDFLEAKGYKEVKKDLIIKLPKYSLFELENGRKRMLASAGELQKGNELALPSKYVNFLYLASHYEKLKGSPEDNEQKQLFVEQHKHYLDEIIEQISEFSKRVILADANLDKVLSAYNKHRDKPIREQAENIIHLFTLTNLGAPAAFKYFDTTIDRKRYTSTKEVLDATLIHQSITGLYETRIDLSQLGGDKRPAATKKAGQAKKKK
B2: Cas9 (A175-307): Cas9 mutant lacking the REC2 domain, SEQ ID NO: 116 (protein)
chain: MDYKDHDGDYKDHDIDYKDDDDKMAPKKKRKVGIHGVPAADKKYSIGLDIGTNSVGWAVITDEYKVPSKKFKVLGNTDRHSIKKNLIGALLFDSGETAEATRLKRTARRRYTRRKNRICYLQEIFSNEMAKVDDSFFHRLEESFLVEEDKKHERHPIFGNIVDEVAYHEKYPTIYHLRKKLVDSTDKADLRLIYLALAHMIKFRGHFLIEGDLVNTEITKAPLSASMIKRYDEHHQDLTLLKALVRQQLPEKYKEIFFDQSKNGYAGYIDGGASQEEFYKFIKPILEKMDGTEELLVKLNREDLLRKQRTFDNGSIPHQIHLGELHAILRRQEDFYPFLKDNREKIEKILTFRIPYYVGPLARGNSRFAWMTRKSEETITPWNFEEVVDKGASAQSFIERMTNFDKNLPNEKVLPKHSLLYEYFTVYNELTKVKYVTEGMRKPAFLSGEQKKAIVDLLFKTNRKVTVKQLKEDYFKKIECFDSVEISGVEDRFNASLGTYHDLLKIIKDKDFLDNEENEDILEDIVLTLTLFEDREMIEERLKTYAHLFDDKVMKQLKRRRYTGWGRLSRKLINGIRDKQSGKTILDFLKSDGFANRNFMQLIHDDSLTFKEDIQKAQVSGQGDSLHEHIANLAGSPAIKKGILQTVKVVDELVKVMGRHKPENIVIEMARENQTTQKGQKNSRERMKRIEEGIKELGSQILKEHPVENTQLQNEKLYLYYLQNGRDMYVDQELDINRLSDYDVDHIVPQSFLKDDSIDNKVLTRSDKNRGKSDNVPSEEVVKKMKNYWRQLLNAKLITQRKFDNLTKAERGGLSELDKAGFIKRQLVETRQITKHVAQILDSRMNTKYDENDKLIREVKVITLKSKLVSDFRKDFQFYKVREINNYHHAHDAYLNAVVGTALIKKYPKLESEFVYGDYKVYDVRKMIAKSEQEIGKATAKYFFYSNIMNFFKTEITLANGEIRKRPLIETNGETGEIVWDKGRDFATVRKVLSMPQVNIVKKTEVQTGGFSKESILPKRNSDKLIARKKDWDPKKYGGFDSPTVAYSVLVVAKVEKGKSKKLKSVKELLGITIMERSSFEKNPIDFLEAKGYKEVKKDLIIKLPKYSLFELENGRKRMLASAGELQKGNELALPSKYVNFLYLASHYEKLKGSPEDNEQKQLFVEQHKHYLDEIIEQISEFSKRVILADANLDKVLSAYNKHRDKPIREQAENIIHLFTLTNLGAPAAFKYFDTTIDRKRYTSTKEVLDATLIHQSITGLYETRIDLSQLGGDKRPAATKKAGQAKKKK
B3: A1099-1368: SpCas9 with deletion of the PI domain, SEQ ID NO: 118 (protein)
chain: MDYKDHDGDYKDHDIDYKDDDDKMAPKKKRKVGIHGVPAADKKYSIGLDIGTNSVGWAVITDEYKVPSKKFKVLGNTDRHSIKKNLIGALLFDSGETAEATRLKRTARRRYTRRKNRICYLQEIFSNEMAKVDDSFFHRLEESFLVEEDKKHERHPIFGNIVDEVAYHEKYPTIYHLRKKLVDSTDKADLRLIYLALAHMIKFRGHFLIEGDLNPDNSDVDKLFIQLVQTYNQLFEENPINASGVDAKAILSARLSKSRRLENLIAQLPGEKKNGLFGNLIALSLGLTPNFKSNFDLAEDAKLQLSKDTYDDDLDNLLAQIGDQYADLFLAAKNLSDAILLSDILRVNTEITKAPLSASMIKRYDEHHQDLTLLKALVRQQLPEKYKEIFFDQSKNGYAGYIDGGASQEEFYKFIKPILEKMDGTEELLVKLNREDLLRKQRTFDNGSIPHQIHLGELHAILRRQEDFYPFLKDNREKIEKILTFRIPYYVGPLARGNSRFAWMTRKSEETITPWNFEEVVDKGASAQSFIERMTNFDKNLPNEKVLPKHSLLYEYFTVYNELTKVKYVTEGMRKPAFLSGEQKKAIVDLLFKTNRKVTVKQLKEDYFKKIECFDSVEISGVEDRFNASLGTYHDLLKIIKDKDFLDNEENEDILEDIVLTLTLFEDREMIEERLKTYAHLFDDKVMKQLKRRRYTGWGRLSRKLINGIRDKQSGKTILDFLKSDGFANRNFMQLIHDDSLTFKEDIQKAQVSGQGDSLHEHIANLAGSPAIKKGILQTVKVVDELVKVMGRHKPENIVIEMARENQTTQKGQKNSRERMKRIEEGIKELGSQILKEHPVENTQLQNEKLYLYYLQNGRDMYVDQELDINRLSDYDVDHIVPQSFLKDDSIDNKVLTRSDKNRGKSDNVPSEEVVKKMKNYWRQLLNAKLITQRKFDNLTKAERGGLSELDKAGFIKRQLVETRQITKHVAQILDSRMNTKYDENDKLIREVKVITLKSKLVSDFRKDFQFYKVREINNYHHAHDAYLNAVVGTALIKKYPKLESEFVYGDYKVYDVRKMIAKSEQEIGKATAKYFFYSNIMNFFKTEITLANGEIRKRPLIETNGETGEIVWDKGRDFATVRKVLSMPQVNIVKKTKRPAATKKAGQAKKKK

Columns and labels:
[1] = system: Factor VII; conditions: LNP siRNA systems containing these lipids; cited from earlier work
[2] = system: target DNA with 5′-NGG PAM; test: Cleavage of target DNA bearing 5′-NGG PAM by PI domain chimeras (Example 12); format: cell-based, human; conditions: 5′-GGGCT
Procedure: (§1) Cells were transfected using Lipofectamine 2000 (Life Technologies) at 70-80% confluency following the manufacturer's recommended protocol.
(§2) Genomic DNA was extracted using the QuickExtract DNA Extraction Solution (Epicentre) following the manufacturer's protocol.
(§3) 400 ng total of the purified PCR products were mixed with 2 μl 10× Taq DNA Polymerase PCR buffer (Enzymatics) and ultrapure water to a final volume of 20 μl, and subjected to a re-annealing process to enable heteroduplex formation: 95° C. for 10 min, 95° C. to 85° C. ramping at −2° C./s, 85° C. to 25° C. at −0.25° C./s, and 25° C. hold for 1 min. After re-annealing, products were treated with SURVEYOR nuclease and SURVEYOR enhancer S (Transgenomics) following the manufacturer's recommended protocol, and analyzed on 4-20% Novex TBE poly-acrylamide gels (Life Technologies). Gels were stained with SYBR Gold DNA stain (Life Technologies) for 30 min and imaged with a Gel Doc gel imaging system (Bio-rad). Quantification was based on relative band intensities. Indel percentage was determined by the formula, 100×(1−(1−(b+c)/(a+b+c))^1/2), where a is the integrated intensity of the undigested PCR product, and b and c are the integrated intensities of each cleavage product.

[3] = system: genomic DNA in human embryonic kidney 293FT (HEK293FT) cells; test: SURVEYOR nuclease assay of Cas9 and sgRNA mutants (Example 12); format: cell-based
Procedure: as §1, §2, §3

| Molecule | gene silencing potency series [1] | other results |
| --- | --- | --- |
| CCCCC/C=C\C/C=C\CCCCCCCCC1(CCCCCCCC/C=C\C/C=C\CCCCC)OCC(CCN(C)C)O1 (stereo not shown) [DLinKC2-DMA, 1,2-dilinoleyl-4-(2-dimethylaminoethyl)-[1,3]-dioxolane] | DLinKC2-DMA>DLinKDMA>DLinDMA>>DLinDAP |  |
| CCCCC/C=C\C/C=C\CCCCCCCC(=O)OCC(CN(C)C)OC(=O)CCCCCCC/C=C\C/C=C\CCCCC (stereo not shown) [DLinDAP, 1,2-dilineoyl-3-dimethylammonium-propane] | DLinKC2-DMA>DLinKDMA>DLinDMA>>DLinDAP |  |
| CCCCC/C=C\C/C=C\CCCCCCCCOCC(CN(C)C)OCCCCCCCC/C=C\C/C=C\CCCCC (stereo not shown) [DLinDMA, 1,2-dilinoleyloxy-3-N,N-dimethylaminopropane] | DLinKC2-DMA>DLinKDMA>DLinDMA>>DLinDAP |  |
| 1,2-dilinoleyloxy-keto-N,N-dimethyl-3-aminopropane [DLinKDMA] | DLinKC2-DMA>DLinKDMA>DLinDMA>>DLinDAP |  |
| B1 |  | cleavage of target DNA with 5′-NGG PAM [2]: cleaved |
| B2 |  | activity relative to wild-type Cas9 ([3]; indel, SURVEYOR, n=3): ~50% |
| B3 |  | DNA cleavage activity ([3]; Cas9 truncation and point mutants): abolished the cleavage activity |
